Here are results for 3 compounds from US20170216235A1, “ADMINISTRATION OF ADAPALENE AND BENZOYL PEROXIDE FOR THE LONG-TERM TREATMENT OF ACNE VULGARIS” (GALDERMA RESEARCH & DEVELOPMENT, priority 2007, published 2017).

Each structure is given as a SMILES string. Where two headings read alike, the source gives them in different places.

Series [1] in a line: Retinoid degradation in the presence of BPO. Type of series: physicochemical. How it is done:
Another technical problem to be solved for the formulation of a composition comprising both adapalene and BPO is the chemical and physical compatibility of these compounds within the same formulation provided that common retinoids are natural oxidization sensitive, visible light and ultra violet sensitive and BPO being a strong oxidizing agent.
Indeed, BPO triggers rapidly degradation of natural oxidization sensitive retinoids: 50% of tretinoine is degraded within 2 hours and 95% is degraded within 24 hours.

The conditions of series [2]: 40° C., cited from earlier work.

As for `CC1=C(/C=C/C(C)=C/C=C/C(C)=C/C(=O)O)C(C)(C)CCC1` [tretinoine], the “retinoid degraded in the presence of BPO” value was 50% in series [1] (within 2 hours) and 95% in series [1] (within 24 hours).
Consider `COc1ccc(-c2ccc3cc(C(=O)O)ccc3c2)cc1C12CC3CC(CC(C3)C1)C2` [adapalene, 6-[3-(1-adamantyl)-4-methoxyphenyl]-2-naphthoic acid], for which the “adapalene degradation in the composition with BPO” value in series [1] (within 24 hours) is on record as “no adapalene degradation”.
As to `O=C(OOC(=O)c1ccccc1)c1ccccc1` [BPO, benzoyl peroxide], the values for the BPO degradation time in series [2] (in PEG 400 (0.5 mg/g)), in series [2] (in ethanol) and in series [2] (in propylene glycol) were 14 days, 29 days and 53 days, respectively.
